{"source": "patent US10799480B2", "about": "“Calixpyrrole-based antitumor compounds” (Giam Pharma International sarl, priority 2016, dated 2020)", "key": {"ovary carcinoma SKOV-3": {"tested_on": "ovary carcinoma SKOV-3", "assay": "MTT test on ovary carcinoma SKOV-3 cell line", "type": "cell-based", "settings": "for pEC50: Homo sapiens, SK-OV-3, SKOV-3; for activity: SKOV-3, fragments", "from_the_text": "(§1) Cellular vitality tests have been performed by using the derivatives of Formulas VII, I and III on due ovary carcinoma lines (SKOV-3 and A2774), two mammary carcinoma lines (MCF-7 and MDAMB-231) and two pulmonary carcinoma lines (H727 and A549). The compounds of Formulas I and III have further been tested in liposomal nanoparticles (NP) in comparison with the pulmonary carcinoma lines H727. The pulmonary carcinoma lines have been used also as target for determining the genotoxicity of the compounds of Formulas I and III, for determining the type of cellular death, through flow cytometry analyses, and for a preliminary analysis in vivo with toxicity determination and pharmacy-kinetics estimation (compound from Formula I).\n(§2) The macrocycles of Formulas VII, I and III have been used in MTT tests on cellular lines derive from ovary carcinoma. […] The selectivity shown by the derivative of Formula I compared with a specific cellular line surely needs to be further analyzed as regards its operating mechanism.\n(§3) A series of MTT tests have been performed by using the derivatives of Formulas VI, VIII, II and IV (such compounds can be considered as possible fragments of the macrocycles of Formulas V, VII, I and III). […] The results of these MTT tests show how the cytotoxic activity of the compounds of the invention has to be ascribed to the complete structure of the macrocycle having the acetyl function and not to any isolated component thereof."}, "pulmonary carcinoma A549 [1]": {"tested_on": "pulmonary carcinoma A549", "assay": "Flow cytometry analysis of type of cellular death", "type": "cell-based", "from_the_text": "as §1\nThe cellular lines A549 treated with the compound of Formula I show 38.80% of apoptosis (9.05% early apoptosis and 29.75% late apoptosis) compared with a 9.30% of necrosis. The same cells treated with the compound of Formula III show 23.45% of total apoptosis (10.25% early apoptosis and 13.20% late apoptosis) against 4.75% of necrosis."}, "[2]": {"tested_on": "mammary carcinoma MDAMB-231", "assay": "MTT test on mammary carcinoma MDAMB-231 cell line", "type": "cell-based", "settings": "Homo sapiens, MDA-MB-231", "from_the_text": "as §1\n(§4) In particular, for both tumor cellular lines, the derivatives of Formulas I and III have EC50 of about 20 μM, while the derivative of Formula VII has a EC50 included between 20 and 30 μM, as shown in the graphs in FIG. 3 and FIG. 4."}, "pulmonary carcinoma A549 [3]": {"tested_on": "pulmonary carcinoma A549", "assay": "MTT test on pulmonary carcinoma A549 cell line", "type": "cell-based", "settings": "for efficacy compared with Endoxan (cyclophosphamide): A549, various concentrations; for efficacy: A549", "from_the_text": "as §1\n(§5) The derivatives of Formulas I and III have been used for a series of MTT tests at different concentrations, as such or from a formulation of lipid nanoparticles (NP), using cellular lines deriving from pulmonary carcinoma H727.\nas §3"}, "[4]": {"tested_on": "DNA of pulmonary carcinoma A549 cells", "assay": "Receptor-DNA adducts through 32P marking", "type": "cell-based", "settings": "A549, butanol enrichment"}, "ovary carcinoma A2774": {"tested_on": "ovary carcinoma A2774", "assay": "MTT test on ovary carcinoma A2774 cell line", "type": "cell-based", "from_the_text": "as §1, §2"}, "pulmonary carcinoma A549 [5]": {"tested_on": "pulmonary carcinoma A549", "assay": "COMET test (DNA fragmentation)", "type": "cell-based", "settings": "concentrations from 5 to 50 μM, with respect to standard K", "from_the_text": "These latter data are mainly affected by the fact that this technique is not able to detect dead cells, and, in case of compounds of Formulas I and III, such percentage, as previously seen, is relevant."}, "pulmonary carcinoma H727": {"tested_on": "pulmonary carcinoma H727", "assay": "MTT test on pulmonary carcinoma H727 cell line", "type": "cell-based", "settings": "H727, different concentrations, as such or in lipid nanoparticles (NP)", "from_the_text": "as §1, §5"}, "NJ mice": {"tested_on": "NJ mice", "settings": "in vivo", "from_the_text": "(§6) A preliminary analysis for the toxicity in vivo has been performed by using the compound of Formula I on NJ mice. Due to the particularly hydrophobic nature of such derivative, after various attempts to determine the best solvent mixture, which is non-toxic for the animal, but which contains an adequate concentration of receptor, it has been decided to administer the compound using a mixture containing 10% of DMSO in olive oil. […] After 5 days, the mouse has been sacrificed and, through a HPLC/Mass analysis, the distribution of the compound inside the different compartments has been determined. The different tissues/organs (back sub-skin, spleen, omentum, heart, liver, brain, lung and kidney) have been removed, homogenized and analyzed. A high concentration of the compound of Formula I (determined through the computation of the peak area at m/z 546.31), corresponding to the analyzed compound [M-H]^−), has been observed in the injection site (Area 532.875) and in the spleen (Area 196.233), but the biggest amount has been discovered in the omentum (Area 1.237.999). Lower concentrations have been discovered in the kidney (Area 120.117), in the lung (Area 32.514) and in the heart (Area 29.443). A minimum amount of the compound has been detected in the liver (Area 11.293)."}, "[6]": {"settings": "mouse, in vivo", "from_the_text": "as §6"}, "mammary carcinoma MCF-7": {"tested_on": "mammary carcinoma MCF-7", "assay": "MTT test on mammary carcinoma MCF-7 cell line", "type": "cell-based", "settings": "Homo sapiens, MCF7", "from_the_text": "as §1, §4"}, "extrogen receptor GPER": {"target": "extrogen receptor GPER (Homo sapiens, UniProt Q99527)", "sequence (Q99527 whole entry)": "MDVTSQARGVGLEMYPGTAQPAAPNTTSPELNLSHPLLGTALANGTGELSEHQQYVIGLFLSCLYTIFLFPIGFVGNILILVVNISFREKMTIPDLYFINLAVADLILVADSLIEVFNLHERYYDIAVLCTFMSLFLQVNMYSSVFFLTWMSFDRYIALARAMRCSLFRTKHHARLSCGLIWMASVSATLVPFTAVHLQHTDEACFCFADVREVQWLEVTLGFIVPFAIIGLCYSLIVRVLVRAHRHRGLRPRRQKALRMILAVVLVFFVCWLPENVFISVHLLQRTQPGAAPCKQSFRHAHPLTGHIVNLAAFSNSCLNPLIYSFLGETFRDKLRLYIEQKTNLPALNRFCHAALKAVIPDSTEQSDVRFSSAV", "settings": "literature; cited from earlier work"}, "[7]": {"settings": "literature; cited from earlier work"}}, "note": "pEC50: −log10 of the molar value. Entries after “also recorded” stand apart in the source; their conditions may differ."}
{"smiles": "CC(=O)Nc1ccc(C2(C)c3ccc([nH]3)C(C)(C)c3ccc([nH]3)C(C)(C)c3ccc([nH]3)C(C)(C)c3ccc2[nH]3)cc1", "note": "[Formula I]", "values": [{"measurement": "pEC50", "setting": "ovary carcinoma SKOV-3", "result": "5.30 to 6.00"}, {"measurement": "early apoptosis", "setting": "pulmonary carcinoma A549 [1]", "result": 9.05, "unit": "%"}, {"measurement": "late apoptosis", "setting": "pulmonary carcinoma A549 [1]", "result": 29.75, "unit": "%"}, {"measurement": "main death mechanism", "setting": "pulmonary carcinoma A549 [1]", "result": "apoptosis is the main death mechanism"}, {"measurement": "necrosis", "setting": "pulmonary carcinoma A549 [1]", "result": 9.30, "unit": "%"}, {"measurement": "total apoptosis", "setting": "pulmonary carcinoma A549 [1]", "result": 38.80, "unit": "%"}, {"measurement": "pEC50", "setting": "[2]", "result": "~4.70"}, {"measurement": "efficacy compared with Endoxan (cyclophosphamide)", "setting": "pulmonary carcinoma A549 [3]", "result": "even more efficient than the known chemotherapeutic drug Endoxan"}, {"measurement": "adducts with DNA / genotoxicity", "setting": "[4]", "result": "adducts with DNA have been identified"}, {"measurement": "pEC50", "setting": "ovary carcinoma A2774", "result": "~4.82"}, {"measurement": "fragmentation of DNA", "setting": "pulmonary carcinoma A549 [5]", "result": "have not given any fragmentation of DNA"}, {"measurement": "efficacy (cellular vitality)", "setting": "pulmonary carcinoma H727", "result": "maximum efficacy already at the lowest doses being used (5 μM)"}, {"measurement": "effects on the mouse", "setting": "NJ mice; sc, 5 mg/kg", "result": "without discovering particular effects on the mouse"}, {"measurement": "effect on the animal", "setting": "NJ mice; mouse, ip", "result": "has not show any apparent effect on the animal"}, {"measurement": "peak area in the brain", "setting": "[6]; NJ, 5 days", "result": 7.735}, {"measurement": "peak area in the heart", "setting": "[6]; NJ, 5 days", "result": 29.443}, {"measurement": "peak area in the injection site", "setting": "[6]; NJ, 5 days", "result": 532.875}, {"measurement": "peak area in the kidney", "setting": "[6]; NJ, 5 days", "result": 120.117}, {"measurement": "peak area in the liver", "setting": "[6]; NJ, 5 days", "result": 11.293}, {"measurement": "peak area in the lung", "setting": "[6]; NJ, 5 days", "result": 32.514}, {"measurement": "peak area in the spleen", "setting": "[6]; NJ, 5 days", "result": 196.233}, {"measurement": "passing the hematic-encephalic barrier", "setting": "[6]", "result": "actually capable of passing the hematic-encephalic barrier"}, {"measurement": "pEC50", "setting": "mammary carcinoma MCF-7", "result": "~4.70"}]}
{"smiles": "CC1(C)c2ccc([nH]2)C(C)(C)c2ccc([nH]2)C(C)(C)c2ccc([nH]2)C(C)(C)c2ccc1[nH]2", "note": "[meso-octametil-calix[4]pyrrole]", "values": [{"measurement": "GPER inhibition", "setting": "extrogen receptor GPER", "result": "selective inhibitor of the extrogen receptor GPER"}, {"measurement": "cytotoxicity", "setting": "[7]", "result": "has not appeared as cytotoxic"}]}
{"smiles": "CC(=O)Nc1cccc(C2(C)c3ccc([nH]3)C(C)(C)c3ccc([nH]3)C(C)(C)c3ccc([nH]3)C(C)(C)c3ccc2[nH]3)c1", "note": "[Formula III]", "values": [{"measurement": "pEC50", "setting": "ovary carcinoma SKOV-3", "result": "~4.82"}, {"measurement": "early apoptosis", "setting": "pulmonary carcinoma A549 [1]", "result": 10.25, "unit": "%"}, {"measurement": "late apoptosis", "setting": "pulmonary carcinoma A549 [1]", "result": 13.20, "unit": "%"}, {"measurement": "main death mechanism", "setting": "pulmonary carcinoma A549 [1]", "result": "apoptosis is the main death mechanism"}, {"measurement": "necrosis", "setting": "pulmonary carcinoma A549 [1]", "result": 4.75, "unit": "%"}, {"measurement": "total apoptosis", "setting": "pulmonary carcinoma A549 [1]", "result": 23.45, "unit": "%"}, {"measurement": "pEC50", "setting": "[2]", "result": "~4.70"}, {"measurement": "efficacy compared with Endoxan (cyclophosphamide)", "setting": "pulmonary carcinoma A549 [3]", "result": "even more efficient than the known chemotherapeutic drug Endoxan"}, {"measurement": "adducts with DNA / genotoxicity", "setting": "[4]", "result": "adducts with DNA have been identified; also recorded: higher genotoxicity of the compound of Formula III with respect to the derivative of Formula I"}, {"measurement": "pEC50", "setting": "ovary carcinoma A2774", "result": "~4.82"}, {"measurement": "fragmentation of DNA", "setting": "pulmonary carcinoma A549 [5]", "result": "have not given any fragmentation of DNA"}, {"measurement": "efficacy (cellular vitality)", "setting": "pulmonary carcinoma H727", "result": "maximum efficacy already at the lowest doses being used (5 μM)"}, {"measurement": "pEC50", "setting": "mammary carcinoma MCF-7", "result": "~4.70"}]}
{"smiles": "CC(=O)Nc1cccc(C(C)(c2ccc[nH]2)c2ccc[nH]2)c1", "note": "[Formula IV]", "values": [{"measurement": "efficacy", "setting": "pulmonary carcinoma A549 [3]", "result": "have not shown any activity"}]}
{"smiles": "CC(c1cccc(N)c1)(c1ccc[nH]1)c1ccc[nH]1", "note": "[Formula VIII]", "values": [{"measurement": "activity", "setting": "ovary carcinoma SKOV-3", "result": "inefficient"}]}
{"smiles": "CC(=O)Nc1ccc(C(C)(c2ccc[nH]2)c2ccc[nH]2)cc1", "note": "[Formula II]", "values": [{"measurement": "efficacy", "setting": "pulmonary carcinoma A549 [3]", "result": "have not shown any activity"}]}
{"smiles": "CC1(C)c2ccc([nH]2)C(C)(C)c2ccc([nH]2)C(C)(c2cccc(N)c2)c2ccc([nH]2)C(C)(C)c2ccc1[nH]2", "note": "[Formula VII]", "values": [{"measurement": "pEC50", "setting": "ovary carcinoma SKOV-3", "result": "~4.82"}, {"measurement": "pEC50", "setting": "[2]", "result": "4.52 to 4.70"}, {"measurement": "efficacy", "setting": "pulmonary carcinoma A549 [3]", "result": "seem not show any efficacy"}, {"measurement": "activity", "setting": "ovary carcinoma A2774", "result": "has not shown any activity"}, {"measurement": "fragmentation of DNA", "setting": "pulmonary carcinoma A549 [5]", "result": "a fragmentation is observed"}, {"measurement": "pEC50", "setting": "mammary carcinoma MCF-7", "result": "4.52 to 4.70"}]}
{"smiles": "CC(c1ccc(N)cc1)(c1ccc[nH]1)c1ccc[nH]1", "note": "[Formula VI]", "values": [{"measurement": "activity", "setting": "ovary carcinoma SKOV-3", "result": "inefficient"}]}
{"smiles": "CC1(C)c2ccc([nH]2)C(C)(C)c2ccc([nH]2)C(C)(c2ccc(N)cc2)c2ccc([nH]2)C(C)(C)c2ccc1[nH]2", "note": "[Formula V]", "values": [{"measurement": "efficacy", "setting": "pulmonary carcinoma A549 [3]", "result": "seem not show any efficacy"}, {"measurement": "fragmentation of DNA", "setting": "pulmonary carcinoma A549 [5]", "result": "a fragmentation is observed"}]}
